# Source: patent US20090048216A1, “INTRAVENOUS AND ORAL DOSING OF A DIRECT-ACTING AND REVERSIBLE P2Y12 INHIBITOR” (Portola Pharmaceuticals, Inc., priority 2007, published 2009)
# “Also recorded” adds a separate entry of the source.
# Assays:
# P2Y12 receptor = molecular target: T1, P2Y12 receptor (Homo sapiens, UniProt Q9H244); test: platelet ADP receptor binding assay (ARB): inhibition of [3H]2-MeS-ADP binding to platelets; conditions: whole platelets
# T1 construct: endogenous in cells; host or cells: apyrase-washed human platelets (outdated from hospital blood banks, or fresh)
# T1 sequence (Q9H244 whole entry): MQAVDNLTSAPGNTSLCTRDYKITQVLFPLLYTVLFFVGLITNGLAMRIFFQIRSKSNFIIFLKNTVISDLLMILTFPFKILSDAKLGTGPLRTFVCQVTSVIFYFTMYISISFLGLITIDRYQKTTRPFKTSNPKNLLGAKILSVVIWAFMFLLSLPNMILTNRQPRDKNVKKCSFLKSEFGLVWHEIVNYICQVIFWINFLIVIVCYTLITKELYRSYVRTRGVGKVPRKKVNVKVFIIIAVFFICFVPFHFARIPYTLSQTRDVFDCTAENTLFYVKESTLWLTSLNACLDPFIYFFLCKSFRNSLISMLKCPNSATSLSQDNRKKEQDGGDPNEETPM
# Experimental: 1. The Ability of Candidate Molecules to Inhibit the Binding of [3H]2-MeS-ADP to the P2Y12 Receptor on Platelets was Determined Using a Radioligand Binding Assay.
# Utilizing this assay the potency of inhibition of such compounds with respect to [^3H]2-MeS-ADP binding to whole platelets is determined. Under the conditions described in II (3) below, the binding of [^3H]2-MeS-ADP is solely due to the interaction of this ligand with the P2Y12 receptor, in that all the specific binding measured in this assay is compatable with a P2Y12 antagonist (i.e., the specific binding is reduced to background levels by competition with an excess of P2Y12 antagonist, with no competition of binding when a P2Y1 antagonist is pre-incubated with the platelet preparation). […]
# A platelet ADP receptor binding assay (ARB) using the tritiated potent agonist ligand [3H]2-MeS-ADP (Jantzen, H. M. et al. (1999) Thromb. Hemost. 81:111-117) has been adapted to the 96-well microtiter format. […] Total binding is determined in the absence of test compounds. […] The platelet-bound radioactivity on the filtermats is determined in a scintillation counter (Microbeta 1450, Wallac Inc., Gaithersburg, Md.). Specific binding is determined by subtraction of non-specific binding from total binding, and specific binding in the presence of test compounds is expressed as % of specific binding in the absence of test compound dilutions. […]
# [1] = tested on: ADP-induced human platelet aggregation; test: Inhibition of ADP-mediated platelet aggregation in vitro (PRP assay); format: cell-based; conditions: human platelet-rich plasma
# Experimental: For preparation of human platelet-rich plasma for aggregation assays, human venous blood was collected from healthy, drug-free volunteers into 0.38% sodium citrate (0.013 M, pH 7.0 final). […] This preparation of PRP can subsequently be used for aggregation assays in either a 96-well plate or standard cuvette aggregometry.
# For cuvette light transmittance aggregation assays, serial dilutions (1:3) of test compounds were prepared in 100% DMSO in a 96 well V-bottom plate (final DMSO concentration in the cuvette was 0.6%). […] The aggregation reaction is recorded for ˜5 min, and maximum extent of aggregation is determined by the difference in extent of aggregation at baseline, compared to the maximum aggregation that occurs during the five minute period of the assay. Inhibition of aggregation was calculated as the maximum aggregation observed in the presence of inhibitor, compared to that in the absence of inhibitor. […]
# Inhibition of ADP-dependent aggregation was also determined in 96-well flat-bottom microtiter plates using a microtiter plate shaker and plate reader similar to the procedure described by Frantantoni et al., Am. […] The OD of the samples is then determined at 450 nm using a microtiter plate reader (Softmax, Molecular Devices, Menlo Park, Calif.) resulting in the 0 minute reading. […]
# [2] = Accelerated stability of solid forms
# [3] = one week, 40° C., 75% RH
# [4] = tested on: ADP induced platelet aggregation
# Experimental: (§1) Human venous blood was collected in a plastic syringe and immediately transferred to a plastic tube containing a fixed amount of anticoagulant (e.g., 5 μM (final) of a proprietary Portola anticoagulant C921-78 (a factor Xa inhibitor (see, Betz A, Wong P W, Sinha U. Inhibition of factor Xa by a peptidyl-alpha-ketothiazole involves 2 steps: evidence for a stabilizing conformational change. Biochemistry. 1999; 38: 14582-14591)) and mixed gently by inversion. Platelet-rich plasma (PRP) was prepared by centrifugation of whole blood at 160×g for 20 minutes at room temperature. The PRP layer was removed, transferred to a new tube, and the platelet count was adjusted, if necessary, to achieve a platelet concentration of ˜3×10^8 platelets/ml using platelet-poor plasma (PPP). PPP is prepared by centrifugation of the remaining blood sample (after removal of PRP) for 20 minutes at 800×g. This preparation of PRP was used for standard light transmittance aggregometry assays. A fixed volume of PRP (0.3-0.5 mls) was transferred to an aggregometry cuvette, and the same volume of PPP was used to blank the machine. While stirring the PRP, a sufficient volume of adenosine diphosphate (ADP, Sigma-Aldrich) was added to achieve a final concentration of 10 μM in the cuvette, and the change in light transmittance was recorded for 6 minutes. The maximum extent of aggregation as well as the final (6 min after initiation of the aggregation reaction) extent of aggregation was determined from each reaction.
# (§2) The compound of Formula I was the potassium salt (Polymorph B) dissolved in water.
# [5] = Tolerability and safety of single oral doses in human subjects; conditions: oral doses 10-800 mg
# Experimental: A single center, double-blind, placebo-controlled study of a compound of Formula I was conducted in human subjects. The compound of Formula I was the potassium salt (Polymorph B) dissolved in water.
# [6] = Pharmacokinetics of single IV doses in human subjects; format: in vivo; conditions: IV 1-40 mg
# [7] = Bleeding time (Surgicutt device) after IV infusion; format: in vivo, human
# Experimental: Bleeding time was measured using the Surgicutt device at 25 min (Cmax) and 8 hrs post dose. […] However, this effect was reversed by 8 hrs post dosing.
# [8] = tested on: collagen-induced platelet thrombosis; test: Real Time Thrombosis Profiler (RTTP) ex vivo after oral dosing; format: in vivo, human; conditions: 6 hours post dosing
# Experimental: Rhodamine 6G (1.25 μg/ml final concentration) was added to the blood, mixed by gentle inversion, and the tube was incubated at ˜37° C. for 20 min. Subsequently, the rhodamine-labeled blood was perfused through a rectangular glass capillary coated with type III collagen at an arterial shear rate (˜1600 sec^−1) and the extent of thrombus formation on the collagen surface was monitored for 5-7 min by the accumulation of fluorescently-labeled platelets using a video camera. The extent of the overall thrombotic process (e.g., accumulation of fluorescently-labeled platelets over time) was determined by analysis of various parameters derived from the curve generated from mean fluorescence intensity vs time (sec). These parameters may include slope, area under the curve, and endpoint.
# In yet another part of the study, the effects of the oral treatments in the human subjects was investigated using a Real Time Thrombosis Profiler (RTTP) as the ex vivo assay method. The set up and principles of operation of the RTTP are depicted in FIGS. 26A, B, and C. There was a dose-dependent decrease in the RTTP collagen-induced platelet thrombosis for the subjects given the compound. A dose of 100 mg of the compound produced about a 70% inhibition. A dose of 30 mg of the compound produced a 53 percent inhibition.
# [9] = tested on: ADP-induced platelet aggregation; test: animal or person; conditions: Homo sapiens, iv, 0.1 h, read-out: IC50 for inhibition of ADP-induced late (6 min) platelet aggregation vs plasma concentration (Emax model)
# Experimental: (§3) Human venous blood was collected in a plastic syringe and immediately transferred to a plastic tube containing a fixed amount of anticoagulant (e.g., 5 μM (final) of a proprietary Portola anticoagulant C921-78 (a factor Xa inhibitor (see, Betz A, Wong P W, Sinha U. Inhibition of factor Xa by a peptidyl-alpha-ketothiazole involves 2 steps: evidence for a stabilizing conformational change. Biochemistry. 1999; 38: 14582-14591)) and mixed gently by inversion. Platelet-rich plasma (PRP) was prepared by centrifugation of whole blood at 160×g for 20 minutes at room temperature. The PRP layer was removed, transferred to a new tube, and the platelet count was adjusted, if necessary, to achieve a platelet concentration of ˜3×10^8 platelets/ml using platelet-poor plasma (PPP). PPP is prepared by centrifugation of the remaining blood sample (after removal of PRP) for 20 minutes at 800×g. This preparation of PRP was used for standard light transmittance aggregometry assays. […] While stirring the PRP, a sufficient volume of adenosine diphosphate (ADP, Sigma-Aldrich) was added to achieve a final concentration of 10 μM in the cuvette, and the change in light transmittance was recorded for 6 minutes. The maximum extent of aggregation as well as the final (6 min after initiation of the aggregation reaction) extent of aggregation was determined from each reaction.
# [10] = tested on: ADP-induced platelet aggregation; conditions: IV, at the higher dosages
# Experimental: as §3
# [11] = Tolerability and safety of single intravenous doses in human subjects; format: in vivo
# Description: To determine the tolerability, the pharmacokinetic (PK) and pharmacodynamic (PD) effects of single ascending IV doses of a compound of Formula I (the potassium salt of polymorph B, or PRT128) in healthy subjects, ages 18-50.
# [12] = tested on: ADP induced platelet aggregation; test: animal or person; conditions: Homo sapiens, po, 0.1 h, read-out: IC50 of inhibition of ADP-induced platelet aggregation vs plasma concentration (PK-PD), oral study, aggregation at 6 minutes, ex vivo
# Experimental: as §1, §2
# [13] = Pharmacokinetics of single oral liquid doses in human subjects; format: in vivo
# [14] = tested on: collagen induced platelet aggregation; test: Ex vivo collagen-induced platelet aggregation after oral dosing, with or without aspirin; format: in vivo, human; conditions: aspirin alone, predosed for three days at 325 mg/day
# Description: In a further aspect of the study, the effect of aspirin and the compound together on the inhibition of collagen-induced platelet aggregation was investigated.
compound,measurement,setting,value
CNc1cc2[nH]c(=O)n(-c3ccc(NC(=O)NS(=O)(=O)c4ccc(Cl)s4)cc3)c(=O)c2cc1F [Example 2],IC50,P2Y12 receptor,< 50 nM
same,IC50,[1],< 10 µM
CNc1cc2[nH]c(=O)n(-c3ccc(NC(=O)[N-]S(=O)(=O)c4ccc(Cl)s4)cc3)c(=O)c2cc1F.[K+] [Form A],stability of solid form,[2],stable
same,change in chemical purity in accelerated stability test,[3],No change
CNc1cc2[nH]c(=O)n(-c3ccc(NC(=O)[N-]S(=O)(=O)c4ccc(Cl)s4)cc3)c(=O)c2cc1F.[K+] [PRT128],inhibition of ADP-induced platelet aggregation,"[4]; oral 100 mg, four hours post dose",60%
same,IC50 of inhibition of ADP-induced platelet aggregation vs plasma concentration (PK-PD),"[4]; oral study, aggregation at 6 minutes, ex vivo, listed as potassium salt, potassium salt",≈ 450 ng/ml
same,maximum inhibition of ADP-induced platelet aggregation measured at six minutes,"[4]; oral, at the higher dosages",100%
same,dose achieving maximum effect (maximum amplitude aggregation),"[4]; oral, four hour time point",about 200 mg
same,serious adverse events,[5],no serious adverse events
same,tolerability,[5],well tolerated
same,drug exposure with dose,[6],dose proportional
same,dose at which pre-defined bleeding time stopping criteria (>20 min and 3 fold prolongation from baseline) were reached,[7],40 mg
same,bleeding time,[7]; 25 min (Cmax),prolonged dose-dependently
same,bleeding time effect at 8 hrs,"[7]; 8 hrs post dose, potassium salt",reversed; also recorded: returned to baseline
same,bleeding time at potential clinically therapeutic anti-thrombotic level of 40%,"[7]; listed as studied compound, potassium salt",without substantially affecting bleeding time
same,bleeding time at potential clinically therapeutic anti-thrombotic level of 40%,[7]; potassium salt,did not increase bleeding time
same,inhibition of RTTP collagen-induced platelet thrombosis,[8]; oral 30 mg,53%
same,inhibition of RTTP collagen-induced platelet thrombosis,[8]; oral 100 mg,~70%
same,IC50,[9],0.601 µg/mL
same,maximum inhibition of ADP-induced platelet aggregation measured at six minutes,[10],100%
same,ECG,[11]; IV 1-40 mg,No significant changes
same,serious adverse events,[11]; IV 1-40 mg,No serious adverse events
same,"standard clinical chemistry, hematology and coagulation labs",[11]; IV 1-40 mg,no clinically significant changes or trends
same,vital signs,[11]; IV 1-40 mg,No significant changes or trends
same,tolerability,"[11]; IV 1-40 mg over 20 minutes, human",well tolerated
same,tolerability,[11]; IV bolus up to 45 mg,equally well tolerated
same,IC50,[12],~0.451 µg/mL
same,plasma PK increases with dose,"[13]; oral, 10-100 mg",dose proportional
same,half-life,"[13]; plasma, single oral liquid dose, read-out: terminal half-life (converted)",~720 min
CNc1cc2[nH]c(=O)n(-c3ccc(NC(=O)[N-]S(=O)(=O)c4ccc(Cl)s4)cc3)c(=O)c2cc1F.[Na+] [amorphous form of the sodium salt],change in chemical purity in accelerated stability test,[3],No change
ortho-acetylsalicylic acid [aspirin],reduction in collagen induced platelet aggregation assay,[14],~40%
